Measurements taken from patent US8748459B2, “Pyridinoylpiperidines as 5-HT1F agonists” (Eli Lilly and Company, priority 2002, dated 2014).

System: rabbit saphenous vein
Assay: rabbit saphenous vein contraction
Experimental: Representative compounds of the present invention were tested in a rabbit saphenous vein contraction assay to measure their ability to mediate vasoconstriction. […] The tips of two 30-gauge stainless steel hypodermic needles bent into an L-shape were slipped into the polyetylene tubing. Vessels were gently pushed from the cannula onto the needles. The needles were then separated so that the lower one was attached with thread to a stationary glass rod and the upper one was tied with thread to the transducer. […] An initial optimum resting force of 1 gm was applied to the saphenous vein. Isometric contractions were recorded as changes in grams of force on a Beckman Dynograph with Statham UC-3 transducers and microscale accessory attachments. Tissues were allowed to equilibrate 1 to 2 hours before exposure to drugs. Cumulative agonist concentration-response curves were generated in tissues and no tissue was used to generate more than two agonist concentration-response curves. […] This vasoconstriction assay measures two important parameters, saphenous vein contraction (EC50) and maximal contraction as a % maximal KCl response (%max KCl).

- corrected vasoconstriction EC50 (EC50 divided by %max KCl): 10.3 nM
- EC50 (Oryctolagus cuniculus): 660 nM
SMILES: CNS(=O)(=O)Cc1ccc2[nH]cc(CCN(C)C)c2c1 [sumatriptan]
